Data from article PMC10321287, “β-amyloid binds to microglia Dectin-1 to induce inflammatory response in the pathogenesis of Alzheimer's disease” (International Journal of Biological Sciences, 2023).

Experiments:
Dectin-1 [1] = assay: Co-IP of APP/β-amyloid and Dectin-1 in brain lysates; type: binding, mice; conditions: lysates from WT and Aβ42 brain tissues, Protein A magnetic beads
Description: The triggering receptor expressed on myeloid cells 2 (Trem2) is a microglial surface receptor genetically linked to the risk of AD [28]. Most Aβ functions in microglia are thought to be mediated by its binding to Trem2 [29]. […] Trem2 is the currently reported microglia receptor that can directly bind to Aβ, and we used it as a positive control in this experiment. […] Next, we performed a protein interaction analysis using Co-IP. APP/β-amyloid was added to Protein A magnetic beads as a bait protein, and lysates from WT and Aβ42 brain tissues were added. […] In turn, we could also capture the expression of APP/β-amyloid protein using Dectin-1 as a bait protein (Figure 6C). […] Therefore, we used surface plasmon resonance (SPR) to identify direct Aβ42-Dectin-1 interactions at the molecular level. […] Nuclei are counterstained with DAPI (blue) [scale bar = 5 μm]. (B) Bio-Aβ42 is added to streptavidin-agarose beads and incubated. Biotin alone was used as control. Lysates prepared from BV2 cells were added to beads. The eluent was loaded onto a polyacrylamide gel for western blot analysis. Total lysates were used as input controls. Trem2 was used as a positive control. (C) The Dectin-1-APP/ β-amyloid interaction is analyzed by co-immunoprecipitation in the brains of WT and model mice. […] Mean KD constant derived from five separate experiments. (E) 3D binding model of dectin-1 and amyloid beta peptide. […]

Syk = Syk phosphorylation in BV2 cells (western blot); type: cell-based; conditions: 20 µM Bio-Aβ42, 45 min
Description: (§1) GAPDH was used as loading control. […] GAPDH was used as loading control. […] GAPDH was used as loading control. […] GAPDH was used as loading control.

Dectin-1 [2] = assay: Pull-down with Bio-Aβ42 from BV2 lysates; type: binding; conditions: 100 µL of 20 μM biotinylated Aβ42 on streptavidin-agarose beads, lysate 24 h at 4°C; biotin control; Trem2 positive control
Description: Lysates prepared from microglia cells and mouse brain tissues were then added to the streptavidin-agarose beads with biotinylated- Aβ42. The mixture was incubated for 24h at 4°C under gentle rocking. Samples were then spun and washed 3 times. Then, 5x loading buffer was added in the elution buffer and boiled for 10min, and the samples were used for western blot analysis. Total lysates were used as an input control.
Nuclei are counterstained with DAPI (blue) [scale bar = 5 μm]. (B) Bio-Aβ42 is added to streptavidin-agarose beads and incubated. Biotin alone was used as control. Lysates prepared from BV2 cells were added to beads. The eluent was loaded onto a polyacrylamide gel for western blot analysis. Total lysates were used as input controls. Trem2 was used as a positive control. (C) The Dectin-1-APP/ β-amyloid interaction is analyzed by co-immunoprecipitation in the brains of WT and model mice. […] Mean KD constant derived from five separate experiments. (E) 3D binding model of dectin-1 and amyloid beta peptide. The backbones of dectin-1 and amyloid beta peptide are shown as cartoons. The residues in dectin-1 are shown as cyan sticks, whereas the residues in amyloid beta-peptide are shown as wheat sticks. The hydrogen bonds are depicted as red dashed lines and the salt bridges are depicted as blue dashed lines.

BV2 cells = assay: Microglia phagocytosis and clearance of FITC-Aβ42 (flow cytometry); type: cell-based; conditions: 20 μM FITC-Aβ42, 2 h (phagocytosis) then 24 h in FITC-Aβ-free medium (clearance), Dectin-1-deficient BV2 cells
Description: After incubation, the medium containing FITC-Aβ was removed, and the cells were washed three times with 1xPBS. BV2 cells were collected by centrifugation at 3000rpm for 5min, and resuspended in ice-cold 1xPBS solution. […] Cells were cultured in the FITC-Aβ-free medium for another 24 hours. Collect the cells and detect the level of intracellular Aβ by flow cytometry.

[3] = system: Tnfa, Il1b, IL-6, Cox2, and Inos; assay: mRNA levels of inflammatory genes (real-time qPCR); type: cell-based; conditions: Aβ42-stimulated, normalized to GAPDH
Description: Total RNA was isolated from cultured BV2 cells and brain tissues using TRIzol reagent (Thermo Fisher, 15596026) by standard techniques. Total RNA concentration was measured by a spectrophotometer. Then, PrimeScript RT-reagent Kit (Takara, RR037A) was used for cDNA synthesis. Real-time PCR amplification reactions were carried out on CFX96 Touch Real-Time PCR Detection System (Bio-Rad) using TB Green Premix Ex Taq II (Takara; RR820A). Quantification of the mRNA expression was calculated by […] method with GAPDH normalization. Primer sequences used in this study were presented in Supplementary Table S2.
(§2) Figure 5 Dectin-1 interference prevents Aβ42-induced inflammatory response in BV2 cells. (A) Time-course of Dectin-1-Syk interaction. […] (B) HEK-293T cells were transfected with Flag-tagged Dectin-1 (Flag-D1) and HA-tagged Dectin-1 (HA-D1). […] (C) Time-course of Syk phosphorylation. […] Total proteins were extracted and probed for p-Syk and Syk levels. GAPDH was used as loading control. (D) Dose-course of Syk phosphorylation. […] Total proteins were used to measure p-Syk and Syk levels. GAPDH was used as loading control. (E) Determination of Dectin-1 interference efficiency in BV2 cells. Total proteins were extracted and probed for p-Syk and Syk levels. […] (H) TNFα release in cell supernatant measured by ELISA. (I) IL-1β release in in cell supernatant measured by ELISA. […]

Syk/NF-κB = Syk/NF-κB activation in BV2 cells (western blot); type: cell-based; conditions: Aβ42-stimulated BV2 cells, siRNA targeting Dectin-1
Description: as §1

NF-κB p65 = assay: p65 nuclear translocation in BV2 cells (immunofluorescence); type: cell-based; conditions: Aβ42-stimulated BV2 cells, siRNA targeting Dectin-1
Description: Properly treated BV2 cells were fixed in 4% paraformaldehyde (PFA) for 15-20 min. The BV2 cells were then incubated with 1x PBS containing 0.1% Triton X-100 (PBST) for 20 min to increase membrane permeability. After block with 1% BSA for 1 h at room temperature, the primary antibody (1:100) was added and incubate overnight at 4 °C. Next day, the cells were washed three times with 1xPBS and incubated with fluorophore conjugated secondary antibody (1:500) for 2h. Finally, one drop of antifade mounting medium with DAPI (P0131, Beyotime) was added to stain the Nuclei. Then, sections were observed and analyzed under a Nikon A1 confocal microscope.
as §2, with “cells.” for “cells. Total proteins were extracted and probed for p-Syk and Syk levels.”

PC12 cells = assay: PC12 damage by BV2-conditioned medium; type: cell-based; conditions: medium of Dectin-1-deficient BV2 cells exposed to Aβ42, PC12 treated 24 h
Description: To test cellular apoptosis, TUNEL assay was performed (C1098, Beyotime, Shanghai, China). For cells: Properly treated BV2 cells were fixed with 4% PFA for 20 min and washed with PBST for 3 times. Then cells were incubated with TUNEL test solution (5 μl of TdT enzyme and 45 μl of fluorescent labeling solution) under dark condition for 1h. After washing with 1xPBS for three times, nuclei were stained with DAPI. The apoptotic cells (green fluorescence) were observed under fluorescent microscopy and calculated as a percentage of the total number of cells. For brain tissue: Processed tissue samples were incubated with 50 μl of TUNEL reaction mixture for 1h at 37℃ under dark conditions. Color developed in DAB coloring solution. Apoptosis index (brown color) in the hippocampus area were measured using this formula: apoptosis index (%) = (apoptotic neurons / total neurons) × 100%.

TNF-α and IL-1β = TNF-α and IL-1β release from BV2 cells (ELISA); type: cell-based; conditions: Aβ42-stimulated BV2 cells, cell supernatant
Description: After behavior test, blood samples from each group of mice were collected. Serum was obtained by centrifuge at 12000 rpm for 10 min and the levels of TNF-α and IL-1β were measured using ELISA kits. Briefly, samples were added to the wells with a biotin-conjugated antibody specific to TNF-α or IL-1β. Then, Avidin conjugated to Horseradish Peroxidase (HRP) was added to each microplate well and incubated. […] Finally, stop solution was added to stop the reaction and the color change were measured at a wavelength of 450 nm by a microplate reader. The concentration of TNF-α or IL-1β in the samples were then determined by comparing the OD value of the samples to the standard curve.
as §2, with “cells.” for “cells. Total proteins were extracted and probed for p-Syk and Syk levels.”

In the case of “APP/β-amyloid: APP/β-amyloid protein used as bait with lysates from WT and Aβ42 brain tissues”, the “binding to Dectin-1 (co-IP)” value (Dectin-1 [1]) is reported as “binds to the Dectin-1 protein in these lysates”.

For “Bio-Aβ42: biotin-labeled Amyloid beta peptide, obtained from GL Biochem”, the “Syk phosphorylation by Bio-Aβ42” value (Syk) was “retained the Dectin-1 activating activity of Aβ42, as evidenced by the increased phosphorylation of Syk” and the “binding to Dectin-1 (pull-down/Co-IP)” value (Dectin-1 [2]) was “Co-IP analysis further confirmed this result”.

In the case of “FITC-Aβ42: Aβ42 linked with a FITC label”, the “phagocytosis and clearance of FITC-Aβ42, effect of Dectin-1 deficiency” value (BV2 cells) is reported as “did not affect the fluorescence intensity of Aβ”.

With “siD1: siRNA targeting Dectin-1 gene; sense 5’-GGAGAAAUCCAGAGGAGAATT-3’, antisense 5’-UUCUCCUCUGGAUUUCUCCTT-3’ (chemistry not given here)” the “mRNA levels of inflammatory genes Tnfa, Il1b, IL-6, Cox2, Inos” value [3] was “significantly reversed”, the “Syk/NF-κB activity after Dectin-1 knockdown” value (Syk/NF-κB) was “this increased activity of Syk/NF-κB was not seen in Dectin-1-deficient BV2 cells” and the “p65 nuclear translocation after Dectin-1 knockdown” value (NF-κB p65) was “remarkably inhibited Aβ42-induced p65 nuclear translocation”. For the same substance, the “PC12 damage by medium of siD1-treated microglia” value (PC12 cells) was “failed to damage PC12 cells” and the “TNF-α and IL-1β release after Dectin-1 knockdown” value (TNF-α and IL-1β) was “decreased the release of the inflammatory factors TNF-α and IL-1β”.
